Test results reported in patent publication US20260285810A1, “CRYSTAL FORM OF MUSCARINE ANTAGONIST, METHOD FOR PREPARING SAME, AND USE THEREOF” (SICHUAN KELUN PHARMACEUTICAL RESEARCH INSTITUTE CO., LTD., priority 2023, published 2026).

Experiments:
Type in all cases: physicochemical
[1] = Accelerated and long-term storage, crystal form by XRPD
Protocol: The packaged samples were stored under conditions of 30° C./35% RH and 40° C./75% RH, and collected and investigated for crystal forms at day 0, 3 months, and 6 months, respectively.

[2] = Hygroscopic weight gain on storage at 80% humidity for 24 hours; conditions: stored under a humidity condition of 80%+2% for 24 hours
[3] = Temperature- and humidity-mediated crystal transformation (XRPD, HPLC purity, KF water content)
Protocol: (§1) The XRPD pattern of the crystal form is collected using an X'Pert3 Powder diffractometer, which uses Cu […] irradiation and performs detection using Absolute scan at room temperature. The detection range is from 3.5° to 40°, with a step size of 0.013°, a dwell time of 50 s, and one scan.
Samples 1 and 2 were tested for XRPD, HPLC purity, and KF water content.

[4] = Dynamic vapor sorption (DVS) evaluation; conditions: DVS 25° C.
Protocol: The DVS pattern of the crystal form is tested using a DVS Intrinsic (SMS) at a test temperature of 25° C. and detected in cycle-DMDT mode.
Dynamic vapor sorption curve (also referred to as adsorption-desorption characteristic curve) was evaluated using a DVS Intrinsic (SMS). Approximately 30 mg of the sample prepared in Example 1 was subjected to a three-stage programmed scanning method at room temperature (25° C.) as follows: the first-stage hygroscopicity program involving a stepwise increase in relative humidity from 60% RH to 90% RH, with a relative humidity change rate of 10% RH/step; the second-stage hygroscopicity program involving a stepwise decrease in relative humidity from 90% RH to 0% RH, with a relative humidity change rate of 10% RH/step; and the third-stage hygroscopicity program involving a stepwise increase in relative humidity from 0% RH to 90% RH, with a relative humidity change rate of 10% RH/step. The mass change rate mode (dm/dt mode) was used, where when the mass change rate (dm/dt) was ≤0.005%, the instrument program controlled the switching of the relative humidity (RH) to the next stage and maintained constant humidity (+/−10% RH).

[5] = Angle of repose (powder comprehensive characteristic tester); conditions: Example 1 batch
Protocol: The powder falls through the funnel to form a cone, and then the angle between the inclined plane and the horizontal plane is determined. The test is repeated in triplicate.

[6] = Influencing factors stability: high temperature, high humidity, illumination, accelerated conditions (XRPD, HPLC purity); conditions: for remaining at 840 h: solid state
Text: Samples were collected and tested for XRPD and HPLC purity at day 0, day 5, day 10, and day 35, respectively.

[7] = Bulk density and tap density (powder density tester); conditions: Example 1 batch
Protocol: The top surface is carefully leveled, and the apparent volume is recorded. The cylinder is then placed on the powder density tester and shaken at a frequency of 1250. The taped volume is recorded, and then the tap density is calculated. The same batch of samples is tested three times in parallel.

[8] = Particle size distribution (Malvern Mastersizer 3000); conditions: Example 1 batch; dispersion solvent water
Protocol: Test method: The particle type is set as non-spherical, the particle refractive index is 1.52, the particle absorption rate is 0.001, and the rotation speed is 1800 rpm; the obscuration is 2%-15%, the sample background test time is 10 seconds, the dispersion solvent is water, the dispersant refractive index is 1.330, and the stabilization time is about 30 seconds; the number of tests is 3.

[9] = Drying of wet crystal product with Karl Fischer water content and XRPD testing; conditions: drying at 30° C.-35° C., vacuum
Protocol: as §1
The wet crystal product of Example 1 was dried under conditions of a temperature of 30° C.-35° C. and a vacuum degree of −0.08 Mpa. During the drying, the samples were collected for Karl Fischer water content testing and XRPD.

[10] = before/after drying (30° C., vacuum, humidity ≤20%, 24 h) and re-storage (RH 60%-80%, 25° C.-30° C., 24 h)
[11] = Illumination at 25° C. (4500 lx), day 35
[12] = day 0, Example 3 batch, packaged

SMILES: CN(CCN1CCC(OC(=O)Nc2ccccc2-c2ccccc2)CC1)C(=O)c1ccc(CN2CCC(C(N)=O)CC2)cc1 [crystal form A of revefenacin]
- crystal form and crystallinity ([1]; 3-month and 6-month storage under the accelerated condition (40° C./75% RH)): remains unchanged in both crystal form and crystallinity
- crystal form ([1]; 30° C./35% RH, 6 months): Crystal form A
- crystal form ([1]; 30° C./35% RH, day 0): Crystal form A
- crystal form ([1]; 40° C./75% RH, 3 months): Crystal form A
- crystal form ([1]; 40° C./75% RH, 6 months): Crystal form A
- crystal form ([1]; 40° C./75% RH, day 0): Crystal form A
- crystal form and crystallinity ([1]; long-term conditions (30° C./35% RH) for 6 months): remains unchanged in both crystal form and crystallinity
- hygroscopic weight gain [2]: < 2%
- HPLC % [3, 10]: 99.79%
- KF/water content [3, 10]: 9.1%
- XRPD [3, 10]: Crystal form A
- chemical purity of the crystal form ([3]; during the temperature- and humidity-mediated mutual transformation of crystal forms): remains unchanged
- hygroscopic weight gain ([4]; humidity increased from 60% RH to 90% RH, sample of Example 1): < 0.4%
- hygroscopic weight gain ([4]; within the range of 30%-90% RH, sample of Example 1): < 2%
- crystal form of the samples collected during the DVS process ([4]; sample of Example 1): remains unchanged
- DVS curve characteristics ([4]; sample of Example 1, FIG. 5): reversible adsorption/desorption characteristics and low hygroscopicity
- powder angle of repose [5]: 45 °
- XRPD crystal form ([6]; 40° C., day 5): form A
- XRPD crystal form ([6]; 40° C., day 10): form A
- XRPD crystal form ([6]; 40° C., day 35): Crystal form A
- XRPD crystal form ([6]; 40° C./75% RH, day 5): form A
- XRPD crystal form ([6]; 40° C./75% RH, day 10): form A
- XRPD crystal form ([6]; 40° C./75% RH, day 35): Crystal form A
- XRPD crystal form ([6]; 92.5% RH (25° C.), day 5): form A
- XRPD crystal form ([6]; 92.5% RH (25° C.), day 10): form A
- XRPD crystal form ([6]; 92.5% RH (25° C.), day 35): Crystal form A
- XRPD crystal form ([6]; Illumination at 25° C. (4500 lx), day 5): form A
- XRPD crystal form ([6]; Illumination at 25° C. (4500 lx), day 10): form A
- XRPD crystal form [6, 11]: Crystal form A
- Purity (HPLC) [6, 12]: Purity: 99.87%
- XRPD crystal form [6, 12]: form A
- crystal form on exposure to stress conditions ([6]; high temperature (40° C.), high humidity (92.5% RH), illumination and accelerated (40° C./75% RH) conditions): remains unchanged
- remaining at 840 h ([6]; 40° C., day 35): 99.9%
- remaining at 840 h ([6]; 40° C./75% RH, day 35): 99.9%
- remaining at 840 h ([6]; 92.5% RH (25° C.), day 35): 99.9%
- remaining at 840 h [6, 11]: 99.9%
- bulk density [7]: 0.285 g/mL
- tap density [7]: 0.494 g/mL
- particle size D10 [8]: 8.40 μm
- particle size D50 [8]: 25.86 μm
- particle size D90 [8]: 53.59 μm
- crystal form (XRPD) ([9]; KF water content=7.1%): mixed crystals
- crystal form (XRPD) ([9]; KF water content=8.3%): crystal form A
- crystal form (XRPD) ([9]; KF water content=8.9%): crystal form A
- crystal form (XRPD) ([9]; KF water content=17%): crystal form A
